The source of these data is patent US20240366540A1, “MITOFUSIN INHIBITORS AND USES THEREOF” (Albert Einstein College of Medicine, priority 2021, published 2024).

In assay [1] the test system is cells. Briefly: Cell viability assay (CellTiter-Glo). Format: cell-based. As to conditions: 72 hours. The method, then: Cell viability assay. […] Cell viability was assayed after 72 hrs by addition of CellTiter-Glo reagent according to the manufacturer's protocol (Promega). Luminescence was measured using a […] microplate reader (TECAN). Viability assays were performed in at least triplicate and the data normalized to vehicle-treated control wells.

In assay [2] the test system is MFN1 and MFN2. Nature of the assay: MFN1 and MFN2 gene expression and protein levels. Format: cell-based. The method, then:
Western blot. Western blots were performed from whole cell lysates (WCL) prepared in lysis buffer containing 50 mM Tris-HCl pH 7.5, 1% Triton X-100, 150 mM NaCl, 5 mM MgCl2, 1 mM EGTA and 10% glycerol in the presence of protease inhibitor cocktail (Roche).
Analysis of mitochondrial biogenesis-related genes by q-PCR. Total RNA was extracted by using RNeasy Mini Kit (Qiagen) followed by cDNA synthesis using the SuperScript IV VILO Master Mix (Thermo Scientific), both performed according to the manufacturer's protocol. q-PCR was performed using the following primers: […]
For the q-PCR reaction, Power SYBR Green master mix (Thermo Scientific) was used according to the manufacturer's instructions. Briefly, each reaction consisted of 10 ng cDNA, 5 μL Power SYBR Green master mix, 200 nM primers (forward and reverse), and RNase-free water up to 10 μL. q-PCR was performed on the ViiA 7 Real-Time PCR System (Thermo Scientific) with the following cycle parameter: 95° C. for 10 min, 40 cycles of 95° C. for 15 s, and 60° C. for 1 min. q-PCR products were analyzed by melting curves for unspecific products or primer dimer formation. Rpl39 was used as housekeeping gene and 2^−ΔΔCT method was applied to determine the relative mRNAs expression.

The test system of assay [3] is cells. Nature of the assay: Cell death assay (Annexin V / propidium iodide). As to conditions: for sensitization to BV6-induced cell death: in combination with BV6. Format: cell-based. As to the method: (§1) Cell death assay. Cells (2×10^5 cells/well) were seeded in a 6-well plate and treated with the indicated drugs for 6 hours. Cells were dissociated using Accutase (Thermo Fisher; Cat. #00-4555-56) in order to avoid accidental exposure of phosphatidylserine on the outer plasma membrane. Cell death was evaluated with Dead Cell Apoptosis Kit with Annexin V Alexa Fluor™ 488 & Propidium Iodide (Thermo Fisher; Cat. #V13241) according to manufacturer's protocol. Data was acquired by BD LSRII flow cytometer system using BD FACSDiva software. Data was analyzed by FlowJo (BD).

The subject of assay [4] is MEFs. Briefly: DNA damage, yH2AX immunofluorescence in MEFs. As to conditions: 6 h. Format: cell-based, mouse. The method, then:
Immunofluorescent analysis and microscopy. […] After treatments, cells were washed with PBS and fixed with 4% PFA for 15 min. […] After incubation with primary antibodies, cells were washed with PBS and incubated with the appropriate mouse secondary antibody (ThermoFisher Scientific; A-11001) in the blocking solution. After PBS washes, coverslips were dipped in water and mounted on glass slides using Vectashield containing DAPI (Vector laboratories). […] Data were analyzed with ImageJ.

Assay [5] concerns MEFs. Briefly: Mitochondrial respiration in cellulo (OCR, Seahorse XF24). Format: cell-based, mouse. Particulars: WT MEFs; MASM7 1 μM or MFI8 20 μM, 6 hrs. The method, then: Mitochondrial respiration in cellulo. Mitochondrial oxygen consumption rates (OCR) were assessed using a XF24 Analyzer (Seahorse Biosciences, Billerica MA, USA). In brief, 3×10^4 MEFs were cultured in a XF24 cell culture microplate containing DMEM supplemented with 10% fetal bovine serum. […] OCR was normalized to cell number or total protein content per well for each condition tested.

Assay [6] concerns THP-1 cells. Briefly: Cell death with BV6 in THP-1 cells. Format: cell-based. The method, then: as §1
In assay [7] the test system is MEFs. Nature of the assay: Metabolomics (TCA cycle carboxylic acids, NAD, NADH). Format: cell-based, mouse. Particulars: UPLC-MRM/MS. As to the method: Metabolomics. […] Cells were harvested using a cell scraper and centrifuged at 1200 rpm in 4° C. for 3 min. Each cell pellet sample was suspended into 250 to 700 μL of 80% aqueous methanol in an Eppendorf tube. The samples were vortex mixed for 15 s and sonicated in an ice-water bath for 5 min, followed by centrifugal clarification at 15,000 rpm and 5° C. in an Eppendorf […] centrifuge. The clear supernatants were collected. A standard stock solution of TCA cycle carboxylic acids, NAD and NADH was prepared in 80% methanol as S1. This standard solution S1 was serially diluted 1 to 4 (v/v) with the same solvent to make standard solutions S2 to S10. 20 μL of each standard solution and an aliquot of the clear supernatant from each cell was mixed with 20 μL of an internal standard solution containing 9 ^13C- or deuterium labeled analogues of the TCA cycle carboxylic acids (except isocitric acid), 20 μL of 200 mM 3-NPH solution and 20 μL of 150 mM of EDC solution. The mixtures were allowed to react at 30° C. for 30 min. After reaction, 120 μL of water was added to each solution. 10 μL of the resultant solutions was injected into a C18 UPLC column to quantitate the TCA cycle carboxylic acids by UPLC-MRM/MS with (-) ion detection, according to the procedure we described in a publication.

Assay [8] relates to MOLM13 cells. Nature of the assay: Cell viability, leukemia cells. As to conditions: MOLM13, 72 hr, Cell titer Glo. Format: cell-based. As to the method:
(§2) Cell titer Glo was used to measure viability. Cells were treated with MFI8 for 72 hr (n=3, mean±SD).
(§3) Cell viability assay. Cells (5×10^3 cells/well) were seeded in a 96-well white plate and treated with serial dilutions of MASM7 or MFI8. Cell viability was assayed after 72 hrs by addition of CellTiter-Glo reagent according to the manufacturer's protocol (Promega). Luminescence was measured using a F200 PRO microplate reader (TECAN). Viability assays were performed in at least triplicate and the data normalized to vehicle-treated control wells. Dilutions of MASM7 or MFI8 were performed using a TECAN D300e Digital Dispenser from 10 mM stocks.
For orientation: In ATP-based viability assays light output follows the ATP content of the culture.

Assay [9] relates to MV-411 cells. Nature of the assay: Cell viability, leukemia cells. Particulars: MV-411, 72 hr, Cell titer Glo. Format: cell-based. The method, then:
as §2, §3

In assay [10] the test system is Calu-6 cells. Nature of the assay: Cell viability, lung cancer cells. Format: cell-based. Particulars: Calu-6, 72 hr, Cell titer Glo. As to the method:
as §2, §3

Assay [11] deals with H2405 cells. Briefly: Cell viability, lung cancer cells. Format: cell-based. As to conditions: H2405, 72 hr, Cell titer Glo. As to the method:
as §2, §3

Take `Cc1cccc(NC(C)c2cc(Cl)ccc2O)c1C` (centres unmarked) [MFI8, 4-Chloro-2-(1-((2,3-dimethylphenyl)amino)ethyl)phenol]: the cellular viability entry in assay [1] is “neither MFI8 nor MASM7 decreased cellular viability”. The “MFN1 and MFN2 gene expression and corresponding protein levels” value in assay [2] is reported as “neither MASM7 nor MFI8 altered”. In addition, the “percentage of dead cells” value in [3] (compound alone, upon caspase 3/7 activation) is “did not increase the percentage of dead cells”. In addition, the “sensitization to BV6-induced cell death” value in assay [3] is “potentiated the capacity of BV6 to induce cell death”; in assay [3] (deletion of MFN1/2 and APAF) it was “abolished the capacity of MFI8 to sensitize cells to BV6 treatment”. Moreover, the “DNA damage (yH2AX foci)” value is recorded as “not in MFN1/MFN2 DKO MEFs” in assay [4] (MFN1/MFN2 DKO MEFs) and “increased yH2AX foci in WT MEFs” in [4] (WT MEFs). The “respiration and mitochondrial ATP production (OCR)” value in [5] was “reduced respiration and mitochondrial ATP production”. The “cell death in combination with BV6” value in [6] is “synergistically induce cell death”. Further, the “metabolites of the TCA cycle” value in assay [7] was “markedly reduced several metabolites such as malate, oxaloacetate, and α-ketoglutarate”. Also, the viability entry in assay [8], in assay [9], in assay [10] and in assay [11] was “concentration responsively reduces viability” throughout.
